# Data taken from patent US20220380319A1 (Bial - R&D Investments, S.A., priority 2019, published 2022).
# pIC50: −log10 of the molar value.
# Legend:
# acid ceramidase = biological target: T1, acid ceramidase (Homo sapiens, UniProt Q13510); assay: Acid ceramidase inhibition, biochemical fluorescent assay with cell lysates overexpressing acid ceramidase, substrate Rbm14-12; details: substrate Rbm14-12 6.3 μM, pH 4.5, 1 hr preincubation at RT
# T1 construct: Cell lysates overexpressing acid ceramidase were used as the enzyme source; expressed in transfected cells
# T1 sequence (Q13510 22-395): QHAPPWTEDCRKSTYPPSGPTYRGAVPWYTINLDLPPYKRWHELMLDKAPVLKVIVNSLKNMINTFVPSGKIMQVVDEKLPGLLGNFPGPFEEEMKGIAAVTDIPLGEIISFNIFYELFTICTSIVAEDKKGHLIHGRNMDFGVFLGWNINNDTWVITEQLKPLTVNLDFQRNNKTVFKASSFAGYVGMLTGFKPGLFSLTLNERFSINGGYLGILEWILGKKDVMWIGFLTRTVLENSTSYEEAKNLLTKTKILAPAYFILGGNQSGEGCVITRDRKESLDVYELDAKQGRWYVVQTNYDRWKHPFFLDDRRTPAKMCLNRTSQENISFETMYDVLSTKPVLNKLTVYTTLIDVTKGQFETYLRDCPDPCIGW
# Experimental: The ability of exemplary compounds to inhibit acid ceramidase was measured.
# Cell lysates overexpressing acid ceramidase were used as the enzyme source for compound potency determination in a biochemical fluorescent assay. Briefly, compounds were preincubated with 10 μg protein of cell lysates in a dose-response manner for 1 hr at RT in the assay buffer containing 25 mM NaAC and 100 mM NaCl, pH 4.5. The reaction was initiated by the addition of substrate Rbm14-12 at a final concentration of 6.3 μM. The reaction was run at RT for 1 hr before it was stopped by the addition of the stopping buffer containing 20% methanol (v/v), 1 mg/ml NaIO4, 0.1 M glycine, pH 10.6. The samples were incubated with the stopping buffer at RT for 1 hr to allow the fluorescent product to be formed. Finally, the plate was read with SpectraMax i3 plate reader (Molecular Devices) at ex360 nm and em446 nm. Data were collected and used to determine the IC50 values of compounds by curve fitting to the four-parameter inhibition equation.
# [1] = Compound solubility in water
SMILES,pIC50 (acid ceramidase),solubility [1] [µg/mL]
"COc1cc2ncn(C(=O)NCCc3ccccc3)c2cc1N1CCOCC1 [Example 38a, 5-Methoxy-6-morpholino-N-phenethyl-1H-benzo[d]imidazole-1-carboxamide]",> 6.70,20.4
"COc1cc2c(cc1N1CCOCC1)ncn2C(=O)NCCc1ccccc1 [Example 38b, 6-methoxy-5-morpholino-N-phenethyl-1H-benzo[d]imidazole-1-carboxamide]",> 6.70,18.3
"COc1cc(N2CCOCC2)cc2c1ncn2C(=O)NCCc1ccccc1 [Example 39, 4-Methoxy-6-morpholino-N-phenethyl-1H-benzo[d]imidazole-1-carboxamide]",> 6.70,16.3
"COc1c(N2CCOCC2)ccc2c1ncn2C(=O)NCCc1ccccc1 [Example 40, 4-Methoxy-5-morpholino-N-phenethyl-1H-benzo[d]imidazole-1-carboxamide]",> 6.70,10.5
"O=C(NCCN1CCOCC1)n1cnc2ccccc21 [Example 41, N-(2-Morpholinoethyl)-1H-benzo[d]imidazole-1-carboxamide]",< 6.00,32
"O=C(NCCOCc1ccccc1)n1cnc2ccccc21 [Example 42, N-(2-(Benzyloxy)ethyl)-1H-benzo[d]imidazole-1-carboxamide]",> 6.70,17.7
"O=C(NCCCOc1ccccc1)n1cnc2ccccc21 [Example 43, N-(3-Phenoxypropyl)-1H-benzo[d]imidazole-1-carboxamide]",> 6.70,3.5
"CN1CCC(c2cccc3c2ncn3C(=O)NCCCc2ccccc2)CC1 [Example 44, 4-(1-Methylpiperidin-4-yl)-N-(3-phenylpropyl)-1H-benzo[d]imidazole-1-carboxamide]",> 6.70,23.2
"CN1CCC(c2cccc3c2ncn3C(=O)NCCOc2ccccc2)CC1 [Example 45, 4-(1-Methylpiperidin-4-yl)-N-(2-phenoxyethyl)-1H-benzo[d]imidazole-1-carboxamide]",> 6.70,23.5
"O=C(NCCOc1ccccc1)n1cnc2cc(C(F)(F)F)ccc21 [Example 46a, N-(2-Phenoxyethyl)-5-(trifluoromethyl)-1H-benzo[d]imidazole-1-carboxamide]",> 6.70,0.4
"O=C(NCCOc1ccccc1)n1cnc2ccc(C(F)(F)F)cc21 [Example 46b, N-(2-phenoxyethyl)-6-(trifluoromethyl)-1H-benzo[d]imidazole-1-carboxamide]",> 6.70,0.3
"O=C(NCCOc1ccc(F)cc1)n1cnc2ccccc21 [Example 47, N-(2-(4-Fluorophenoxy)ethyl)-1H-benzo[d]imidazole-1-carboxamide]",> 6.70,4.3
"CC(C)OCCNC(=O)n1cnc2ccccc21 [Example 48, N-(2-iso-Propoxyethyl)-1H-benzo[d]imidazole-1-carboxamide]",6.00 to 6.70,15.4
"CCCCNC(=O)n1cnc2cc(C(F)(F)F)ccc21 [Example 49a, N-Butyl-5-(trifluoromethyl)-1H-benzo[d]imidazole-1-carboxamide]",> 6.70,15.6
"CCCCNC(=O)n1cnc2ccc(C(F)(F)F)cc21 [Example 49b, N-butyl-6-(trifluoromethyl)-1H-benzo[d]imidazole-1-carboxamide]",> 6.70,12.6
"COc1ccnc2c1ncn2C(=O)NCCc1ccccc1 [Example 50, 7-Methoxy-N-phenethyl-3H-imidazo[4,5-b]pyridine-3-carboxamide]",6.00 to 6.70,9.5
"CCCCNC(=O)n1cnc2cc(OC)ccc21 [Example 51a, N-Butyl-5-methoxy-1H-benzo[d]imidazole-1-carboxamide]",> 6.70,7.2
"CCCCNC(=O)n1cnc2ccc(OC)cc21 [Example 51b, N-butyl-6-methoxy-1H-benzo[d]imidazole-1-carboxamide]",> 6.70,8.5
"CCCCNC(=O)n1cnc2c(OC)cccc21 [Example 52, N-Butyl-4-methoxy-1H-benzo[d]imidazole-1-carboxamide]",> 6.70,23.2
"O=C(NCCc1ccccc1)n1cnc2ncc(C(F)(F)F)cc21 [Example 53, N-Phenethyl-6-(trifluoromethyl)-1H-imidazo[4,5-b]pyridine-1-carboxamide]",> 6.70,4.7

SMILES,pIC50 (acid ceramidase),solubility [1] [µg/mL]
"CN1CCC(c2cc(C(F)(F)F)cc3c2ncn3C(=O)NCCc2ccccc2)CC1 [Example 54, 4-(1-Methylpiperidin-4-yl)-N-phenethyl-6-(trifluoromethyl)-1H-benzo[d]imidazole-1-carboxamide]",> 6.70,22.7
"CN1CCC(c2c(C(F)(F)F)ccc3c2ncn3C(=O)NCCc2ccccc2)CC1 [Example 55, 4-(1-Methylpiperidin-4-yl)-N-phenethyl-5-(trifluoromethyl)-1H-benzo[d]imidazole-1-carboxamide]",> 6.70,13
"CCCCNC(=O)n1cnc2c(C3CCN(C)CC3)c(C(F)(F)F)ccc21 [Example 56, N-Butyl-4-(1-methylpiperidin-4-yl)-5-(trifluoromethyl)-1H-benzo[d]imidazole-1-carboxamide]",< 6.00,28.1
"CCCCNC(=O)n1cnc2c(C3CCN(C)CC3)cc(C(F)(F)F)cc21 [Example 57, N-Butyl-4-(1-methylpiperidin-4-yl)-6-(trifluoromethyl)-1H-benzo[d]imidazole-1-carboxamide]",> 6.70,24.1
"CCCCNC(=O)n1cnc2c(C3CCN(C)CC3)cc(OC)cc21 [Example 58, N-Butyl-6-methoxy-4-(1-methylpiperidin-4-yl)-1H-benzo[d]imidazole-1-carboxamide]",6.00 to 6.70,28.1
"O=C(NCCCc1ccccc1)n1cnc2ncccc21 [Example 59, N-(3-Phenylpropyl)-1H-imidazo[4,5-b]pyridine-1-carboxamide]",> 6.70,24.6
"COc1nc2ncccc2n1C(=O)NCCCCc1ccccc1 [Example 61, 2-Methoxy-N-(4-phenylbutyl)-1H-imidazo[4,5-b]pyridine-1-carboxamide]",> 6.70,1
"O=C(NCCOc1ccccc1)n1cnc2ncccc21 [Example 62, N-(2-Phenoxyethyl)-1H-imidazo[4,5-b]pyridine-1-carboxamide]",> 6.70,26.6
"O=C(NCCc1ccccc1)n1cnc2cc(F)ccc21 [Example 63, 5-Fluoro-N-phenethyl-1H-benzo[d]imidazole-1-carboxamide]",> 6.70,2.6
"O=C(NCCc1ccccc1)n1cnc2c(F)cccc21 [Example 64, 4-Fluoro-N-phenethyl-1H-benzo[d]imidazole-1-carboxamide]",> 6.70,3.6
"O=C(NCCc1ccccc1)n1cnc2ccc(C(F)(F)F)nc21 [Example 66a, N-Phenethyl-5-(trifluoromethyl)-3H-imidazo[4,5-b]pyridine-3-carboxamide]",> 6.70,6
"O=C(NCCc1ccccc1)n1cnc2nc(C(F)(F)F)ccc21 [Example 66b, N-phenethyl-5-(trifluoromethyl)-1H-imidazo[4,5-b]pyridine-1-carboxamide]",> 6.70,12.9
"CCCCNC(=O)n1cnc2cc(F)ccc21 [Example 67, N-Butyl-5-fluoro-1H-benzo[d]imidazole-1-carboxamide]",> 6.70,22.5
"CCCCNC(=O)n1cnc2c(F)cccc21 [Example 68, N-Butyl-4-fluoro-1H-benzo[d]imidazole-1-carboxamide]",> 6.70,20.6
"CCCCNC(=O)n1cnc2ccc(F)cc21 [Example 69, N-Butyl-6-fluoro-1H-benzo[d]imidazole-1-carboxamide]",6.00 to 6.70,20.2
"CCCCNC(=O)n1cnc2ccc(OC(F)(F)F)cc21 [Example 70a, N-Butyl-6-(trifluoromethoxy)-1H-benzo[d]imidazole-1-carboxamide]",> 6.70,9.3
"CCCCNC(=O)n1cnc2cc(OC(F)(F)F)ccc21 [Example 70b, N-butyl-5-(trifluoromethoxy)-1H-benzo[d]imidazole-1-carboxamide]",> 6.70,9.6
"COc1cccc2c1ncn2C(=O)NCCOc1ccccc1 [Example 71, 4-Methoxy-N-(2-phenoxyethyl)-1H-benzo[d]imidazole-1-carboxamide]",> 6.70,9.1
"O=C(NCCOc1ccccc1)n1cnc2c(C(F)(F)F)cccc21 [Example 72, N-(2-Phenoxyethyl)-4-(trifluoromethyl)-1H-benzo[d]imidazole-1-carboxamide]",> 6.70,2
